Experimental data reported in ChEMBL document CHEMBL3046635, “Synthesis and Herbicidal Activity of New Pyrazole-4-carboxamide Derivatives” (J Pestic Sci, 2004).
Active and inactive are the calls of the source. Unless noted, the rule behind the calls is not given here.

Columns and labels:
Echinochloa oryzicola [1] = assay: Pre-emergence herbicidal activity against Echinochloa oryzicola assessed as bleaching of stem/leaf parts; format: functional, organism-based
Eleocharis acicularis [2] = assay: Pre-emergence herbicidal activity against Eleocharis acicularis at 500 g a.i/ha measured after 14 days; format: functional, organism-based
Rotala indica [3] = assay: Post-emergence herbicidal activity against Rotala indica assessed as bleaching of stem/leaf parts; format: functional, organism-based; also: test concentration or dose not given here
Lindernia procumbens [4] = assay: Pre-emergence herbicidal activity against Lindernia procumbens at 100 g a.i/ha measured after 14 days; format: functional, organism-based
Eleocharis acicularis [5] = assay: Pre-emergence herbicidal activity against Eleocharis acicularis assessed as bleaching of stem/leaf parts; format: functional, organism-based
Cyperus difformis [6] = assay: Pre-emergence herbicidal activity against Cyperus difformis assessed as bleaching of stem/leaf parts; format: functional, organism-based
Echinochloa oryzicola [7] = assay: Pre-emergence herbicidal activity against Echinochloa oryzicola at 500 g a.i/ha measured after 14 days; format: functional, organism-based
Oryza sativa [8] = assay: Phytotoxicity against Oryza sativa cv. Koshihikari (rice) at 500 g a.i/ha measured after 14 days; format: organism-based; conditions: in vivo, 336 h
Cyperus difformis [9] = assay: Post-emergence herbicidal activity against Cyperus difformis assessed as bleaching of stem/leaf parts; format: functional, organism-based; also: test concentration or dose not given here
Cyperus difformis [10] = assay: Pre-emergence herbicidal activity against Cyperus difformis at 100 g a.i/ha measured after 14 days; format: functional, organism-based
[11] = system: Schoenoplectiella juncoides; assay: Post-emergence herbicidal activity against Schoenoplectiella juncoides assessed as bleaching of stem/leaf parts; format: functional, organism-based; also: test concentration or dose not given here
[12] = system: Schoenoplectiella juncoides; assay: Pre-emergence herbicidal activity against Schoenoplectiella juncoides at 500 g a.i/ha measured after 14 days; format: functional, organism-based
Pontederia vaginalis [13] = assay: Pre-emergence herbicidal activity against Monochoria vaginalis at 500 g a.i/ha measured after 14 days; format: functional, organism-based
Rotala indica [14] = assay: Pre-emergence herbicidal activity against Rotala indica assessed as bleaching of stem/leaf parts; format: functional, organism-based
Eleocharis acicularis [15] = assay: Pre-emergence herbicidal activity against Eleocharis acicularis at 100 g a.i/ha measured after 14 days; format: functional, organism-based
Elatine triandra [16] = assay: Pre-emergence herbicidal activity against Elatine triandra at 500 g a.i/ha measured after 14 days; format: functional, organism-based
Lindernia procumbens [17] = assay: Pre-emergence herbicidal activity against Lindernia procumbens at 500 g a.i/ha measured after 14 days; format: functional, organism-based
Eleocharis acicularis [18] = assay: Post-emergence herbicidal activity against Eleocharis acicularis assessed as bleaching of stem/leaf parts; format: functional, organism-based; also: test concentration or dose not given here
Echinochloa oryzicola [19] = assay: Post-emergence herbicidal activity against Echinochloa oryzicola assessed as bleaching of stem/leaf parts; format: functional, organism-based; also: test concentration or dose not given here
Ammannia multiflora [20] = assay: Pre-emergence herbicidal activity against Ammannia multiflora at 500 g a.i/ha measured after 14 days; format: functional, organism-based
Oryza sativa [21] = assay: Phytotoxicity against Oryza sativa cv. Koshihikari (rice) at 100 g a.i/ha measured after 14 days; format: organism-based; conditions: in vivo, 336 h
Elatine triandra [22] = assay: Post-emergence herbicidal activity against Elatine triandra assessed as bleaching of stem/leaf parts; format: functional, organism-based; also: test concentration or dose not given here
Lindernia procumbens [23] = assay: Pre-emergence herbicidal activity against Lindernia procumbens assessed as bleaching of stem/leaf parts; format: functional, organism-based
Ammannia multiflora [24] = assay: Post-emergence herbicidal activity against Ammannia multiflora assessed as bleaching of stem/leaf parts; format: functional, organism-based; also: test concentration or dose not given here
[25] = system: Schoenoplectiella juncoides; assay: Pre-emergence herbicidal activity against Schoenoplectiella juncoides at 100 g a.i/ha measured after 14 days; format: functional, organism-based
Pontederia vaginalis [26] = assay: Pre-emergence herbicidal activity against Monochoria vaginalis assessed as bleaching of stem/leaf parts; format: functional, organism-based
Pontederia vaginalis [27] = assay: Post-emergence herbicidal activity against Monochoria vaginalis assessed as bleaching of stem/leaf parts; format: functional, organism-based; also: test concentration or dose not given here
[28] = system: Schoenoplectiella juncoides; assay: Pre-emergence herbicidal activity against Schoenoplectiella juncoides assessed as bleaching of stem/leaf parts; format: functional, organism-based
Rotala indica [29] = assay: Pre-emergence herbicidal activity against Rotala indica at 500 g a.i/ha measured after 14 days; format: functional, organism-based
Pontederia vaginalis [30] = assay: Pre-emergence herbicidal activity against Monochoria vaginalis at 100 g a.i/ha measured after 14 days; format: functional, organism-based
Echinochloa oryzicola [31] = assay: Pre-emergence herbicidal activity against Echinochloa oryzicola at 100 g a.i/ha measured after 14 days; format: functional, organism-based
Ammannia multiflora [32] = assay: Pre-emergence herbicidal activity against Ammannia multiflora assessed as bleaching of stem/leaf parts; format: functional, organism-based
Ammannia multiflora [33] = assay: Pre-emergence herbicidal activity against Ammannia multiflora at 100 g a.i/ha measured after 14 days; format: functional, organism-based
Elatine triandra [34] = assay: Pre-emergence herbicidal activity against Elatine triandra at 100 g a.i/ha measured after 14 days; format: functional, organism-based
Elatine triandra [35] = assay: Pre-emergence herbicidal activity against Elatine triandra assessed as bleaching of stem/leaf parts; format: functional, organism-based
Rotala indica [36] = assay: Pre-emergence herbicidal activity against Rotala indica at 100 g a.i/ha measured after 14 days; format: functional, organism-based
Cyperus difformis [37] = assay: Pre-emergence herbicidal activity against Cyperus difformis at 500 g a.i/ha measured after 14 days; format: functional, organism-based
Lindernia procumbens [38] = assay: Post-emergence herbicidal activity against Lindernia procumbens assessed as bleaching of stem/leaf parts; format: functional, organism-based; also: test concentration or dose not given here

Structure (SMILES)	Activity (Echinochloa oryzicola [1])	Activity (Eleocharis acicularis [2])	Activity (Rotala indica [3])	Activity (Lindernia procumbens [4])	Activity (Eleocharis acicularis [5])	Activity (Cyperus difformis [6])	Activity (Echinochloa oryzicola [7])	Activity (Oryza sativa [8])	Activity (Cyperus difformis [9])	Activity (Cyperus difformis [10])	Activity [11]	Activity [12]	Activity (Pontederia vaginalis [13])	Activity (Rotala indica [14])	Activity (Eleocharis acicularis [15])	Activity (Elatine triandra [16])	Activity (Lindernia procumbens [17])	Activity (Eleocharis acicularis [18])	Activity (Echinochloa oryzicola [19])	Activity (Ammannia multiflora [20])	also measured
Cn1cc(C(=O)NOc2ccc(Cl)cc2Cl)c(OCc2cccc(C(F)(F)F)c2)n1	Active	Active	Active	Active	Active	Active	Active	Non-toxic	Active	Active	Active	Active	Active	Active	Active	Active	Active	Active	Active	Active	Activity (Oryza sativa [21]): Non-toxic; Activity (Elatine triandra [22]): Active; Activity (Lindernia procumbens [23]): Active; Activity (Ammannia multiflora [24]): Active; Activity [25]: inactive; Activity (Pontederia vaginalis [26]): Active; Activity (Pontederia vaginalis [27]): Active; Activity [28]: Active; Activity (Rotala indica [29]): Active; Activity (Pontederia vaginalis [30]): Active; Activity (Echinochloa oryzicola [31]): Active; Activity (Ammannia multiflora [32]): Active; Activity (Ammannia multiflora [33]): Active; Activity (Elatine triandra [34]): Active; Activity (Elatine triandra [35]): Active; Activity (Rotala indica [36]): Active; Activity (Cyperus difformis [37]): Active; Activity (Lindernia procumbens [38]): Active
Cn1cc(C(=O)NOc2ccc(C(F)(F)F)cc2)c(OCc2cccc(C(F)(F)F)c2)n1	Active	Active	Active	Active	Active	Active	Active	Non-toxic	Active	Active	Active	Active	Active	Active	Active	Active	Active	Active	Active	Active	Activity (Oryza sativa [21]): Non-toxic; Activity (Elatine triandra [22]): Active; Activity (Lindernia procumbens [23]): Active; Activity (Ammannia multiflora [24]): Active; Activity [25]: Active; Activity (Pontederia vaginalis [26]): Active; Activity (Pontederia vaginalis [27]): Active; Activity [28]: Active; Activity (Rotala indica [29]): Active; Activity (Pontederia vaginalis [30]): Active; Activity (Echinochloa oryzicola [31]): Active; Activity (Ammannia multiflora [32]): Active; Activity (Ammannia multiflora [33]): Active; Activity (Elatine triandra [34]): Active; Activity (Elatine triandra [35]): Active; Activity (Rotala indica [36]): Active; Activity (Cyperus difformis [37]): Active; Activity (Lindernia procumbens [38]): Active
CCCONC(=O)c1cn(C)nc1OCc1cccc(C(F)(F)F)c1	Active	Active	Active	Active	Active	Active	Active	Toxic	Active	Active	Active	Active	Active	Active	Active	Active	Active	Active	Active	Active	Activity (Oryza sativa [21]): Non-toxic; Activity (Elatine triandra [22]): Active; Activity (Lindernia procumbens [23]): Active; Activity (Ammannia multiflora [24]): Active; Activity [25]: Active; Activity (Pontederia vaginalis [26]): Active; Activity (Pontederia vaginalis [27]): Active; Activity [28]: Active; Activity (Rotala indica [29]): Active; Activity (Pontederia vaginalis [30]): Active; Activity (Echinochloa oryzicola [31]): Active; Activity (Ammannia multiflora [32]): Active; Activity (Ammannia multiflora [33]): Active; Activity (Elatine triandra [34]): Active; Activity (Elatine triandra [35]): Active; Activity (Rotala indica [36]): Active; Activity (Cyperus difformis [37]): Active; Activity (Lindernia procumbens [38]): Active
